Experimental findings from patent US12122778B2, “Activating pyruvate kinase R” (Novo Nordisk Health Care AG, priority 2018, dated 2024) are described below.

For test [1], the target named is PKR(wt) (Homo sapiens, UniProt P30613). The experiment in a line: Luminescence Biochemical Assay (Kinase Glo Plus), wild type PKR. To be noted: without FBP; for activation at 1.54 µM: 1.54 μM compound, read-out: AC50 LUM KGP woFBP % Fold@1.54 μM mean; for AC50: read-out: AC50 LUM KGP woFBP AC50 μM gmean; for Emax: read-out: AC50 LUM KGP woFBP MAX % FOLD mean.
Test [2] has as its target PKR(G332S) (Homo sapiens, UniProt P30613, G332S). The experiment in a line: Luminescence Biochemical Assay (Kinase Glo Plus), PKR G332S mutant. To be noted: with FBP; for activation at 1.54 µM: 1.54 μM compound, read-out: AC50 LUM KGP FBP % Fold@1.54 μM mean; for AC50: read-out: AC50 LUM KGP FBP AC50 μM gmean (column A); for Emax: read-out: AC50 LUM KGP FBP MAX % FOLD mean. A general note: Kinase-Glo reads ATP consumption through a luciferase reaction.

Test [3] concerns the target PKR(R510Q) (Homo sapiens, UniProt P30613, R510Q). Kind of test: Luminescence Biochemical Assay (Kinase Glo Plus), PKR R510Q mutant. To be noted: without FBP; for activation at 1.54 µM: 1.54 μM compound, read-out: AC50 LUM KGP woFBP % Fold@1.54 μM mean; for AC50: read-out: AC50 LUM KGP woFBP AC50 μM gmean; for Emax: read-out: AC50 LUM KGP woFBP MAX % FOLD mean.

Structures are written as SMILES.

Sequence of PKR(wt) (P30613 whole entry): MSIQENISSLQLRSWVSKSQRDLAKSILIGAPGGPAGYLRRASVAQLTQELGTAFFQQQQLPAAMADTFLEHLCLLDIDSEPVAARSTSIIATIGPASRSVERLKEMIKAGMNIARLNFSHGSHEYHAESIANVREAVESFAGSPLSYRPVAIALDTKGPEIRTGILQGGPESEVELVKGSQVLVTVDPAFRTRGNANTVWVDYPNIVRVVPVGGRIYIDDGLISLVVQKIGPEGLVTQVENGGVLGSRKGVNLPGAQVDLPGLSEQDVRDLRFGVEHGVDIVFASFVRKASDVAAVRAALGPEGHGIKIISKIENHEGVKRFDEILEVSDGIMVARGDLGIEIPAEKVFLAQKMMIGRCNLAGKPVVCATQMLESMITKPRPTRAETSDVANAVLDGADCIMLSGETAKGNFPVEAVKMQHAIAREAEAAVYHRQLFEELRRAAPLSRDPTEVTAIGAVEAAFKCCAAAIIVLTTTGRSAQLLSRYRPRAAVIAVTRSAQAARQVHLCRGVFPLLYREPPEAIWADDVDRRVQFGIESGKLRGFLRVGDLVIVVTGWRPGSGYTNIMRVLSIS
Sequence of PKR(R510Q) (P30613 whole entry R510Q): as the sequence (P30613 whole entry) above, with R510Q counted along it
Sequence of PKR(G332S) (P30613 whole entry G332S): as the sequence (P30613 whole entry) above, with G332S counted along it

What is called AC50 is the concentration at which the activity in the assay is half-maximal. `CC(C)Oc1ccc(S(=O)(=O)N2CC3=C(CN(C(=O)[C@H](O)c4ccccc4)C3)C2)cc1` [Example 18-12, (2R)-2-hydroxy-2-phenyl-1-{5-[4-(propan-2-yloxy)benzenesulfonyl]-1H,2H,3H,4H,5H,6H-pyrrolo[3,4-c]pyrrol-2-yl}ethan-1-one]: in test [1], the activation at 1.54 µM was 75 to 250%, the AC50 was in the range of 0.1 to 1 µM and the Emax was in the range of 75 to 250%. In test [2], the activation at 1.54 µM is 75 to 250%, the half-maximal activity concentration (AC50) was 0.1 to 1 µM and the Emax lay in the range of 75 to 250%. In test [3], the activation at 1.54 µM is 75 to 250%, the half-maximal activity concentration (AC50) fell in the range of 1 to 40 µM and the Emax lay in the range of 250 to 500%.
With `O=C(N1CCOCC1)N1CC2=C(C1)CN(S(=O)(=O)c1ccc3ncsc3c1)C2` [Example 6-1, (5-(benzo[d]thiazol-6-ylsulfonyl)-3,4,5,6-tetrahydropyrrolo[3,4-c]pyrrol-2(1H)-yl)(morpholino)methanone], in test [1], the activation at 1.54 µM lay in the range of 75 to 250%, the half-maximal activity concentration (AC50) was in the range of 1 to 40 µM and the Emax was in the range of 250 to 500%. In test [2], the activation at 1.54 µM fell in the range of 75 to 250%, the AC50 fell in the range of 1 to 40 µM and the Emax lay in the range of 75 to 250%. Moreover, in test [3], the activation at 1.54 µM was 75 to 250%, the AC50 lay in the range of 1 to 40 µM and the Emax lay within 250 to 500%.
Turning to `O=C([C@H](O)c1ccc(F)cc1)N1CC2=C(C1)CN(S(=O)(=O)c1ccc(OC(F)F)cc1)C2` [Example 18-31, (2R)-1-{5-[4-(difluoromethoxy)benzenesulfonyl]-1H,2H,3H,4H,5H,6H-pyrrolo[3,4-c]pyrrol-2-yl}-2-(4-fluorophenyl)-2-hydroxyethan-1-one], in test [1], the activation at 1.54 µM was in the range of 250 to 50000%, the concentration at half-maximal activity (AC50) is at most 0.1 µM and the Emax was in the range of 250 to 500%. In test [2], the activation at 1.54 µM was 75 to 250%, the AC50 was at most 0.1 µM and the Emax lay in the range of 75 to 250%. Further, in test [3], the activation at 1.54 µM was 250 to 50000%, the half-maximal activity concentration (AC50) was at most 0.1 µM and the Emax is 250 to 500%.
Regarding `COc1ccc(CNC(=O)N2CC3=C(C2)CN(S(=O)(=O)c2ccc(OC(F)F)cc2)C3)cc1` [Example 21-10, 5-[4-(Difluoromethoxy)benzenesulfonyl]-N-[(4-methoxyphenyl)methyl]-1H,2H,3H,4H,5H,6H-pyrrolo[3,4-c]pyrrole-2-carboxamide], in test [1], the activation at 1.54 µM was in the range of 250 to 50000%, the half-maximal activity concentration (AC50) is at most 0.1 µM and the Emax is 250 to 500%. In test [2], the activation at 1.54 µM lay within 75 to 250%, the AC50 is at most 0.1 µM and the Emax was in the range of 75 to 250%. In addition, in test [3], the activation at 1.54 µM lay within 250 to 50000%, the half-maximal activity concentration (AC50) was at most 0.1 µM and the Emax lay in the range of 250 to 500%.
As for `O=C([C@H]1CCCO1)N1CC2=C(C1)CN(S(=O)(=O)c1ccccn1)C2` [Example 18-60, 2-({5-[(2R)-oxolane-2-carbonyl]-1H,2H,3H,4H,5H,6H-pyrrolo[3,4-c]pyrrol-2-yl}sulfonyl)pyridine], the activation at 1.54 µM in test [1], in test [2] and in test [3] was 75 to 250% throughout. The AC50 in test [1], in test [2] and in test [3] was 1 to 40 µM each time. For the same compound, the Emax was 250 to 500% in test [1], 75 to 250% in test [2] and 250 to 500% in test [3].
Regarding `O=C([C@H](O)c1ccccc1)N1CC2=C(C1)CN(S(=O)(=O)c1ccc(OC(F)F)cc1)C2` [Example 18-13, (2R)-1-{5-[4-(difluoromethoxy)benzenesulfonyl]-1H,2H,3H,4H,5H,6H-pyrrolo[3,4-c]pyrrol-2-yl}-2-hydroxy-2-phenylethan-1-one], in test [1], the activation at 1.54 µM lay in the range of 250 to 50000%, the AC50 is at most 0.1 µM and the Emax was 250 to 500%. Also, in test [2], the activation at 1.54 µM is 75 to 250%, the concentration at half-maximal activity (AC50) was at most 0.1 µM and the Emax was 75 to 250%. Also, in test [3], the activation at 1.54 µM fell in the range of 250 to 50000%, the AC50 was at most 0.1 µM and the Emax fell in the range of 250 to 500%.
